Read-outs that look alike come from different tables or passages of the source.
Assays:
[1] = test system: LPS triggered IL-10 secretion in monocytes; test: Monocytes assay: LPS-triggered IL-10 (ELISA); format: cell-based, human; settings: LPS-triggered IL-10 induction, median maximal fold change vs LPS only; for maximal fold induction: Homo sapiens, Monocyte, read-out: IL-10 FCmax median
Description: This assay evaluates illustrative compounds of the invention for their inhibition of LPS-induced TNFα and LPS triggered IL-10 secretion in monocytes.
PBMCs are isolated from human blood samples (buffycoats). The buffy coat is aseptically transferred into a 50 mL Falcon tube, and diluted 1/2 in PBS. Falcon tubes are filled with 20 mL Lymphoprep™, on top of which 25 mL of the buffy coat is carefully added, tubes are centrifuged for 35 min at 400 g in temperature controlled centrifuge, without brake, at 25° C. PBMCs are aspirated from the white interface layer between sample and Lymphoprep™. PBMCs are washed five times in PBS.
PBMCs are centrifuged at 300×g for 10 min and resuspended at a density of 1.0*10^7 cells/80 μL Miltenyi buffer (PBS, pH 7.4, 1% FBS, 2 mM EDTA).
Starting from this point of the protocol all steps are performed on ice. 20 μL of CD14+ micro-beads are added per 1.0*10^7 cells, the tube is mixed and incubated for 15 min in the fridge at 4° C. Cell suspension volume is adjusted to total volume of 100 mL using Miltenyi buffer, mixed gently and subsequently centrifuged for 10 min at 300×g. Supernatant is discarded and cell pellet is resuspended in 12 mL of Miltenyi buffer.
Four LS columns are placed in the MACS Separator (magnet) from Miltenyi Biotec, and are prewet by rinsing with 3 mL of MACS buffer per column. Three mL of cell suspension is added onto the column (max 1*10^8 of labelled cells/column), and columns are subsequently washed 3 times with 3 mL of Miltenyi buffer.
The columns are removed from the magnets, and 5 mL of Miltenyi buffer are added to the column to flush out the CD14+ fraction by pushing the plunger into the column. The flushed fractions are collected in a fresh 50 mL Falcon and volume is adjusted to 30 mL using Miltenyi buffer, cells are centrifuged for 10 min at 300×g. The obtained cell pellet is resuspended in 10 mL RPMI w/o FBS, and cell density is determined using a hematologic analyser (Sysmex XS-500i).
A compound dilution plate is made in 100% DMSO by 3-fold dilution of 10 mM stock solution. An intermediate dilution plate (10× final concentration) is made by diluting the compound dilution plate 50-fold in RPMI medium.
10 μL of the 10× final concentration compound is added to the cells and incubated for 1 h at 37° C. before addition of trigger. No trigger conditions/trigger conditions are spiked with equal final DMSO concentrations of 0.2% DMSO. 10 μL of 10×LPS (final conc. 200 ng/mL) solution are added to all wells except for the ‘no trigger wells’ where 10 μL medium is added. Supernatant is collected after 4 h of LPS triggering.
A Lumitrac 600 Greiner 384-well plate is coated with 40 μL of capture antibody (final concentration of 1 μg/mL in 1×PBS) and stored overnight at 4° C. The next day the plate is washed three times with PBST (PBS+0.05% Tween20) and once with PBS followed by the addition of 100 μL of blocking buffer (1% BSA-5% Sucrose) and plates are sealed and incubated for at least 4 h at RT. After washing the plate once with PBST and once with PBS, 40 μL of standard or sample are added (IL-10 standard curve is prepared using a 1/2 serial dilution starting from 2000 pg/mL; dilutions are made in dilution buffer (PBS+1% BSA)). […] Plates are washed twice with PBST, and once with PBS, whereafter 35 μL of Strep-HRP conjugate (0.5 μg/mL final concentration diluted in dilution buffer) is added. Plates are incubated in the dark, at RT for at least 45 min but no longer than 1 h. Plates are washed twice with PBST, and once with PBS. Thereafter, 50 μL of luminol substrate is added to each well (prepared according to manufacturer's instructions), and incubated for 5 min at RT protected from light.
To quantify these increases, fold changes (FC) compared to ‘LPS only’ are calculated for each concentration tested and the maximal FC is calculated (IL-10 FCmax): […]

[2] = test system: LPS-induced TNFα in monocytes; test: Monocytes assay: LPS-triggered TNFα (ELISA); format: cell-based, human; settings: LPS-triggered TNFα inhibition
Outline: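 TNFα secretion was triggered with 200 ng/mL LPS for 4 h in human blood CD14+ monocytes after 1 h compound pretreatment at 37 °C, with 0.2% final DMSO. Supernatants were analysed by streptavidin-HRP/luminol ELISA, and percentage inhibition at each concentration was derived relative to control wells.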

SIK3 = target: T1, SIK3 (Homo sapiens, UniProt Q9Y2K2); test: ADP-Glo kinase assay, SIK3; format: biochemical
T1 construct: purchased SignalChem S12-11G-100
T1 sequence (Q9Y2K2 59-365 limits assumed): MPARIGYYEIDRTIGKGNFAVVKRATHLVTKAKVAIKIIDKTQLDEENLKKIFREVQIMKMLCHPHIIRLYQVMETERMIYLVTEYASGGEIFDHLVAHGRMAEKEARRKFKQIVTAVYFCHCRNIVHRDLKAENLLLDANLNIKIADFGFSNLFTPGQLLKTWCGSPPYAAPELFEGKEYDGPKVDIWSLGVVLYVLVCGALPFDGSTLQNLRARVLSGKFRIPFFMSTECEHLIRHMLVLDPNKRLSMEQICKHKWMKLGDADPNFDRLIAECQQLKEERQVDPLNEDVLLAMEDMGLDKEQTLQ
Outline: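 Steps: add enzyme–substrate mixture; start with diluted ATP; incubate RT 120 min; add ADP-Glo Reagent to terminate and remove unconsumed ATP, 40 min; add detection reagent, 30 min; read luminescence. DMSO at 1% and staurosporine at 10 μM (final) define assay windows.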

| EC50 [2] [nM] | IC50 (SIK3) [nM] | IC50 (SIK3; ADP-Glo, AMARA 45 μM, 5 μM ATP, 120 min, average IC50) [nM] | EC50 ([2]; Homo sapiens, Monocyte) [nM] | Structure (SMILES) | maximal fold induction [1] | IL-10 FCmax median [1] |
| --- | --- | --- | --- | --- | --- | --- |
| 100 to 1000 | 10 to 100 | – | – | COc1cc(-c2cnc3cc([C@@](C)(C#N)CO)ccn23)cc(OC(F)F)c1C(=O)NC1CC1 (single isomer, unassigned) [Cpd 189, 4-[7-(1-cyano-2-hydroxy-1-methyl-ethyl)imidazo[1,2-a]pyridin-3-yl]-N-cyclopropyl-2-(difluoromethoxy)-6-methoxy-benzamide] | < 1.5 | – |
| 1000 to 5000 | – | 10 to 100 | – | COc1cc(-c2cnc3cc([C@@](C)(C#N)CO)ccn23)cc(OC(F)F)c1C(=O)NC1CC1 (single isomer, unassigned) [Cpd 190, 4-[7-(1-cyano-2-hydroxy-1-methyl-ethyl)imidazo[1,2-a]pyridin-3-yl]-N-cyclopropyl-2-(difluoromethoxy)-6-methoxy-benzamide] | – | + (+ ≤1.5) |
| – | 10 to 100 | – | 100 to 1000 | CCC(C)(C#N)c1ccn2c(-c3cc(OC)c(C(=O)NC4CC4)c(OC(F)F)c3)cnc2c1 (centres unmarked) [Cpd 27, 4-[7-(1-cyano-1-methyl-propyl)imidazo[1,2-a]pyridin-3-yl]-N-cyclopropyl-2-(difluoromethoxy)-6-methoxy-benzamide] | < 1.5 | – |
| – | 10 to 100 | – | 100 to 1000 | COc1cc(-c2cnc3cc(C(C)(C)O)ccn23)cc(OC(F)F)c1C(=O)NC1CC1 [Cpd 35, N-cyclopropyl-2-(difluoromethoxy)-4-[7-(1-hydroxy-1-methyl-ethyl)imidazo[1,2-a]pyridin-3-yl]-6-methoxy-benzamide] | 1.5 to 4.5 | – |
| – | 0.01 to 10 | – | 100 to 1000 | COc1cc(-c2cnc3cc(C(C)(C)C#N)ccn23)cc(OC(F)F)c1C(=O)NCC1CC1 [Cpd 39, 4-[7-(1-cyano-1-methyl-ethyl)imidazo[1,2-a]pyridin-3-yl]-N-(cyclopropylmethyl)-2-(difluoromethoxy)-6-methoxy-benzamide] | 1.5 to 4.5 | – |
| – | 0.01 to 10 | – | 100 to 1000 | COc1cc(-c2cnc3cc(C(C)(C)C#N)ccn23)cc(OC(F)F)c1C(=O)N1CC(C#N)C1 [Cpd 77, 1-[4-[7-(1-cyano-1-methyl-ethyl)imidazo[1,2-a]pyridin-3-yl]-2-(difluoromethoxy)-6-methoxy-benzoyl]azetidine-3-carbonitrile] | 1.5 to 4.5 | – |
| – | 0.01 to 10 | – | 0.1 to 100 | COc1cc(-c2cnc3cc(C(C)(C)C#N)ccn23)cc(OC(F)F)c1C(=O)N[C@@H]1C[C@@H]1F [Cpd 79, 4-[7-(1-cyano-1-methyl-ethyl)imidazo[1,2-a]pyridin-3-yl]-2-(difluoromethoxy)-N-[(1R,2S)-2-fluorocyclopropyl]-6-methoxy-benzamide] | 1.5 to 4.5 | – |
| – | 0.01 to 10 | – | 100 to 1000 | COc1cc(-c2cnc3cc(C4(C#N)CCOCC4)ccn23)cc(OC)c1C(=O)NCC(F)(F)F [Cpd 107, 4-[7-(4-cyanotetrahydropyran-4-yl)imidazo[1,2-a]pyridin-3-yl]-2,6-dimethoxy-N-(2,2,2-trifluoroethyl)benzamide] | 1.5 to 4.5 | – |
| – | 0.01 to 10 | – | 100 to 1000 | COc1cc(-c2cnc3cc(C4(C#N)CCOCC4)ccn23)cc(OC(F)F)c1C(=O)NC1CC1 [Cpd 116, 4-[7-(4-cyanotetrahydropyran-4-yl)imidazo[1,2-a]pyridin-3-yl]-N-cyclopropyl-2-(difluoromethoxy)-6-methoxy-benzamide] | 1.5 to 4.5 | – |
| – | 0.01 to 10 | – | 100 to 1000 | COc1cc(-c2cnc3cc(C4(C#N)COC4)ccn23)cc(OC(F)F)c1C(=O)NC1CC1 [Cpd 117, 4-[7-(3-cyanooxetan-3-yl)imidazo[1,2-a]pyridin-3-yl]-N-cyclopropyl-2-(difluoromethoxy)-6-methoxy-benzamide] | 1.5 to 4.5 | – |
| – | 10 to 100 | – | 100 to 1000 | COc1cc(-c2cnc3cc(C4(C#N)CCOC4)ccn23)cc(OC(F)F)c1C(=O)NC1CC1 (centres unmarked) [Cpd 123, 4-[7-(3-cyanotetrahydrofuran-3-yl)imidazo[1,2-a]pyridin-3-yl]-N-cyclopropyl-2-(difluoromethoxy)-6-methoxy-benzamide] | 1.5 to 4.5 | – |
| – | 10 to 100 | – | 100 to 1000 | COc1cc(-c2cnc3cc(C(C)(O)C(F)(F)F)ccn23)cc(OC(F)F)c1C(=O)NC1CC1 (centres unmarked) [Cpd 129, N-cyclopropyl-2-(difluoromethoxy)-6-methoxy-4-[7-(2,2,2-trifluoro-1-hydroxy-1-methyl-ethyl)imidazo[1,2-a]pyridin-3-yl]benzamide] | 1.5 to 4.5 | – |
| – | 0.01 to 10 | – | 100 to 1000 | COc1cc(-c2cnc3cc(C4(C#N)COC4)ccn23)cc(OC(F)F)c1C(=O)N[C@@H]1C[C@@H]1F [Cpd 130, 4-[7-(3-cyanooxetan-3-yl)imidazo[1,2-a]pyridin-3-yl]-2-(difluoromethoxy)-N-[(1R,2S)-2-fluorocyclopropyl]-6-methoxy-benzamide] | 1.5 to 4.5 | – |

| Structure (SMILES) | EC50 [2] [nM] | IC50 (SIK3) [nM] | IC50 (SIK3; ADP-Glo, AMARA 45 μM, 5 μM ATP, 120 min, average IC50) [nM] | EC50 ([2]; Homo sapiens, Monocyte) [nM] | maximal fold induction [1] | IL-10 FCmax median [1] |
| --- | --- | --- | --- | --- | --- | --- |
| COc1cc(-c2cnn3cc(C(C)(C)C#N)ccc23)cc(OC(F)F)c1C(=O)N[C@@H]1C[C@H]1F (single isomer, unassigned) [Cpd 257, 4-[6-(1-cyano-1-methyl-ethyl)pyrazolo[1,5-a]pyridin-3-yl]-2-(difluoromethoxy)-N-(2-fluorocyclopropyl)-6-methoxy-benzamide] | – | – | – | 100 to 1000 | 1.5 to 4.5 | – |
| COc1cc(-c2cnn3cc(C(C)(C)C#N)ccc23)cc(OC(F)F)c1C(=O)N[C@@H]1C[C@H]1F (single isomer, unassigned) [Cpd 258, 4-[6-(1-cyano-1-methyl-ethyl)pyrazolo[1,5-a]pyridin-3-yl]-2-(difluoromethoxy)-N-(2-fluorocyclopropyl)-6-methoxy-benzamide] | 100 to 1000 | – | – | – | – | + (+ ≤1.5) |
| COc1cc(-c2cnc3cc(C(C)(C)C#N)ccn23)cc(OC(F)F)c1C(=O)NC1CC1 [Cpd 19, 4-[7-(1-cyano-1-methyl-ethyl)imidazo[1,2-a]pyridin-3-yl]-N-cyclopropyl-2-(difluoromethoxy)-6-methoxy-benzamide] | – | 0.01 to 10 | – | 100 to 1000 | < 1.5 | – |
| COc1cc(-c2cnn3cc(C(C)(C)C#N)ccc23)cc(OC(F)F)c1C(=O)N[C@@H]1C[C@@H]1F [Cpd 219, 4-[6-(1-cyano-1-methyl-ethyl)pyrazolo[1,5-a]pyridin-3-yl]-2-(difluoromethoxy)-N-[(1R,2S)-2-fluorocyclopropyl]-6-methoxy-benzamide] | – | – | – | 0.1 to 100 | < 1.5 | – |
| [2H]C([2H])([2H])C(C#N)(c1ccc2c(-c3cc(OC)c(C(=O)N[C@@H]4C[C@@H]4F)c(OC(F)F)c3)cnn2c1)C([2H])([2H])[2H] [Cpd 275, 4-[6-[1-cyano-2,2,2-trideuterio-1-(trideuteriomethyl)ethyl]pyrazolo[1,5-a]pyridin-3-yl]-2-(difluoromethoxy)-N-[(1R,2S)-2-fluorocyclopropyl]-6-methoxy-benzamide] | – | – | – | 100 to 1000 | 1.5 to 4.5 | – |

From US12391679B2, “Benzamide-substituted bicyclic imidazo- and pyrazolo-fused -pyridine, -pyrimide, and -pyridazine compounds for treatment of inflammatory diseases” (ONCO3R Therapeutics BV, priority 2019, dated 2025)
